Laboratory results from patent US9855239B2, “Methods for the treatment and prevention of age-related retinal dysfunction” (University of Washington, priority 2008, dated 2018).
Entries after “also recorded” stand apart in the source; their conditions may differ.

Assays:
Type in all cases: in vivo, mouse
[1] = Retinoid levels in eyes by HPLC, single dose
Procedure: Forty eight hr dark-adapted, 10-month-old mice were gavaged with a single dose (˜80 mg/kg body weight) of 9-cis-R-Ac or control vehicle and exposed to strong illumination for 20 min (500 cd·m^−2 that bleached ˜90% rhodopsin). Next, mice were dark-adapted for 16 hr after which various analyses were performed (FIG. 1A). […] To investigate whether 9-cis-retinal was utilized to form isorhodopsin and to assess how much unliganded opsin was present in the mouse eyes, rhodopsin, isorhodopsin and opsin were purified by immunoaffinity chromatography from treated and control groups of mice. […] After bleaching, 9-cis-retinal is bound to opsin even in the presence of a functional retinoid cycle that produces 11-cis-retinal to regenerate rhodopsin. Eyes from non-bleached or bleached and dark-adapted untreated mice contained a small amount of free opsin.
9-cis-R-Ac was prepared as previously described (Batten, M. L., et al. PLoS medicine 2, e333 (2005); Batten, M. L., et al. J Biol Chem 279, 10422-10432 (2004)). A dose of ˜80 mg/kg body weight of 9-cis-R-Ac in 150 μl vegetable oil was administered via gavage to each treated animal. Prior to single dose experiments (FIG. 1A, Table 1), 10-month-old mice were dark-adapted for more than 48 hr, gavaged with 9-cis-R-Ac or vehicle control solution 1 hr before bleaching, exposed to light for 20 min at 500 cd·m^−2 and dark-adapted for 16 hr before analysis.
All experimental procedures related to extraction, derivatization and separation of retinoids were carried out under dim red light provided by a Kodak No. 1 safelight filter (transmittance>560 nm) as described previously (Van Hooser, J. P., et al. Proceedings of the National Academy of Sciences of the United States of America 97, 8623-8628 (2000); Van Hooser, J. P., et al. J Biol Chem, 277, 19173-19182 (2002); Maeda, A., et al. J Biol Chem 280, 18822-18832 (2005); Van Hooser, J. P., Garwin, G. G. & Saari, J. C. Methods Enzymol 316, 565-575 (2000)). Eluted fractions of purified rhodopsin from 6 mouse eyes were combined (total 3.0 ml) and mixed with an equal volume of 100% methanol. The mixture was vortexed and incubated on ice for 15 min. Retinoids were extracted twice with an equal volume of 100% hexane (6 ml total). The combined extracts were dried under argon and retinoids were separated by normal phase HPLC (Beckman, Ultrasphere-Si, 5 μm, 4.6×250 mm) with 10% ethyl acetate and 90% hexane at a flow rate of 1.4 ml/min and detected at 325 nm by an HPI 100 HPLC with a diode array detector and HP Chemstation A.03.03 software. A2E was analyzed as previously described (Maeda, A., et al. J Biol Chem, 280, 18822-18832 (2005)).

[2] = Retinoid kinetics in the eyes during dark adaptation, long-term treatment; conditions: 10 months of age, N1 vs C1, 60 min after the bleach (p<0.01)
Procedure: (§1) Recovery of the ERG response (dark adaptation) following bleach was measured by monitoring the amplitude of a-waves after retinal exposure to intense constant illumination (500 cd·m^−2, ˜90% bleached rhodopsin) for 3 min. […] Retinoid kinetics in the eyes of each group were quantitatively evaluated during 60 min of dark adaptation after 3 min of bleaching at four subsequent time points of dark adaptation (0, 10, 30, and 60 min). […] Neither 9-cis-retinal nor 9-cis-retinyl esters were found in eyes from untreated groups (data not shown).
Two weeks after the last gavage with either, 9-cis-R-Ac, all-trans-R-Ac or vehicle, groups of 48 hr dark-adapted mice were analyzed for recovery of dark adaptation after light exposure, purified rhodopsin/opsin and retinoids in the eye and retinal morphology (FIG. 1C; Methods). Mice were exposed to light of intensity 500 cd·m^−2 that bleached ˜90% of rhodopsin, anesthetized and monitored by ERG for one hr to evaluate recovery of dark adaptation. Rhodopsin was purified and rhodopsin/opsin ratios was determined. Retinoid analyses were performed on dissected eyes removed at 0, 10, 30, and 60 min after exposure to the same amount of light. Mice used to evaluate retinal morphology were not exposed to photobleaching prior to analysis. […]

C57BL/6 female mice = test: Recovery of ERG response (dark adaptation) after bleach, long-term treatment; conditions: 500 cd·m^−2 for 3 min, 60 min dark adaptation
Procedure: as §1
Six groups of mice were studied (FIG. 1B).
Two weeks after the last gavage with either, 9-cis-R-Ac, all-trans-R-Ac or vehicle, groups of 48 hr dark-adapted mice were analyzed for recovery of dark adaptation after light exposure, purified rhodopsin/opsin and retinoids in the eye and retinal morphology (FIG. 1C; Methods). Mice were exposed to light of intensity 500 cd·m^−2 that bleached ˜90% of rhodopsin, anesthetized and monitored by ERG for one hr to evaluate recovery of dark adaptation. Rhodopsin was purified and rhodopsin/opsin ratios was determined. Retinoid analyses were performed on dissected eyes removed at 0, 10, 30, and 60 min after exposure to the same amount of light. Mice used to evaluate retinal morphology were not exposed to photobleaching prior to analysis.
ERGs of anesthetized mice were recorded as previously reported.

retina = test: Retinal morphology (light and electron microscopy)
Procedure: The thickness of each major layer in the retina was also similar between control and treated groups.
For light microscopy, mouse eyecups were fixed with 2.5% glutaraldehyde and 1.6% paraformaldehyde in 0.08 M 1,4-piperazinediethanesulfonate buffer (PIPES) (pH 7.4) containing 2% sucrose for ˜1 hr at room temperature followed by 23 hr at 4° C. Eyecups then were washed with 0.13 M sodium phosphate buffer (pH 7.3) and dehydrated through a CH3OH series and embedded in JB4 glycol metacrylate. Sections (6 μm) were stained by immersion in 5% Richardson's stain for 1.5-2 min at room temperature and destained in 0.13 M sodium phosphate (pH 7.3) until the retinal layers were visible by light microscopy (about 8-15 min). For transmission electron microscopy, mouse eyecups were analyzed as described previously (Maeda, A., et al. J Blot Chem 280, 18822-18832 (2005); Maeda, T., Lem, J., Palczewski, K. & Haeseleer, F. Investigative ophthalmology & visual science 46, 4320-4327 (2005)).

## CC(=O)OC/C=C(C)/C=C/C=C(C)\C=C\C1=C(C)CCCC1(C)C [9-cis-R-Ac, 9-cis-retinyl acetate]
[1]; exposed to intense light, treated mice
  9-cis-retinal in eyes: Significant amounts of 9-cis-retinal were detected; also recorded: detected only in the eyes of 9-cis-R-Ac treated mice
[1]; treated and exposed to intense light
  9-cis-retinyl esters in eyes (RPE): significant amount of 9-cis-retinyl esters; also recorded: easily detectable; also recorded: detected only in the eyes of 9-cis-R-Ac treated mice
[1]; treated vs control
  amounts of 11-cis-retinal and all-trans-retinyl esters in eyes: not significantly affected; also recorded: similar
[1]; unbleached treated mouse eyes
  9-cis-retinal in eyes: Only trace amounts
[2]
  regeneration level of 11-cis-retinal in eyes: significantly higher
C57BL/6 female mice; 10 months of age, N1 vs C1
  recovery of ERG a-wave response (dark adaptation) after bleach: significantly faster; also recorded: significantly higher; also recorded: restored the rate of recovery to that seen in 4-month-old mice
C57BL/6 female mice; 14 months of age, treated (9-cis-R-Ac: N2 and N3) vs C2
  recovery of ERG a-wave response (dark adaptation) after bleach: significantly faster; also recorded: significantly higher recovery rate
retina; 10 and 14 months of age
  retinal abnormalities by light microscopy: no major abnormalities
retina; control vs treated
  EM analysis of the outer retina and RPE layer: no gross differences
  thickness of each major layer in the retina: similar
retina; control vs treated at 10 and 14 months of age
  lengths of rod outer segments (ROS): similar
